The results in this text go back to patent US11208412B2 (DAEGU-GYEONGBUK MEDICAL INNOVATION FOUNDATION, priority 2017, dated 2021).

Test in all cases: Kinase selectivity, DiscoverX scanMAX Kinase assay panel (% control)
Assay type in all cases: binding

Test [1] deals with T1, kinases of the scanMAX Kinase assay panel (Homo sapiens, UniProt Q09013).
T1 construct: purchased DiscoverX Co. (contract measurement) scanMAX Kinase assay panel
T1 sequence (Q09013 1-629): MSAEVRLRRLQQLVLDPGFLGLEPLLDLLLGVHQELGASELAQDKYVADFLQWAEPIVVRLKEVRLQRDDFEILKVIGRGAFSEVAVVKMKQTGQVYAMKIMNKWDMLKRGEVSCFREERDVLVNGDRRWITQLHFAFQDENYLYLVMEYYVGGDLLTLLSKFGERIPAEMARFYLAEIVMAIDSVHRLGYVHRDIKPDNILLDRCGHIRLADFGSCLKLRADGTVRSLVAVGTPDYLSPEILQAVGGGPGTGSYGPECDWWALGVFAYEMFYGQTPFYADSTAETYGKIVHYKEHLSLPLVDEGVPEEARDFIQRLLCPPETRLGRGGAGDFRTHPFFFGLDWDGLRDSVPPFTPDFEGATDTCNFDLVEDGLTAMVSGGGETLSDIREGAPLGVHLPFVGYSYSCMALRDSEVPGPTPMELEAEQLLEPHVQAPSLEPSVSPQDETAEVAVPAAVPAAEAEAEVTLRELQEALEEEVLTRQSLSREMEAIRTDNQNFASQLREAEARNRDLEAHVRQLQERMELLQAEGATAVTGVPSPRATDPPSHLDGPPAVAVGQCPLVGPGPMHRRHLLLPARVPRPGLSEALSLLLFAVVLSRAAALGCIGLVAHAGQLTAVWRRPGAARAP
The conditions noted are these: DMPK; 1 uM. The essentials:
(§1)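 Percent of control computed as (compound − positive control)/(negative control − positive control) × 100, DMSO defining 100% and positive control 0%. Each panel kinase exposed to 1 uM compound; values under 35% taken to mean the compound acts on that kinase.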

Test [2] concerns the target T2, kinases of the scanMAX Kinase assay panel (Homo sapiens, UniProt Q15831).
T2 construct: purchased DiscoverX Co. (contract measurement) scanMAX Kinase assay panel
T2 sequence (Q15831 1-433): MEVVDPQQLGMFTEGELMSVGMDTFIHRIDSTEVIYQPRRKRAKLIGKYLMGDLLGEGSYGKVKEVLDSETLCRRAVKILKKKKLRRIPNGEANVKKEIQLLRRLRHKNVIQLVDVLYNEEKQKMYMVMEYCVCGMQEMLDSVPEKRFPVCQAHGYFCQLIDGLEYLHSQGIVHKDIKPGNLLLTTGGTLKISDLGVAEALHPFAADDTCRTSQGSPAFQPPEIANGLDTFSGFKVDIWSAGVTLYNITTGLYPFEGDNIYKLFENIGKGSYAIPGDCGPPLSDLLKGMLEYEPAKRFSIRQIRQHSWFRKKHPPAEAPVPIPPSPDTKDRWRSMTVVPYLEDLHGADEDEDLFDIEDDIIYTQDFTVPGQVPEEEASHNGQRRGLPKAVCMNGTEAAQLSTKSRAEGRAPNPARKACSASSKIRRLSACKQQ
Particulars: LKB1; 1 uM. The essentials:
as §1

Test [3] has as its target T3, kinases of the scanMAX Kinase assay panel (Homo sapiens, UniProt P07948).
T3 construct: purchased DiscoverX Co. (contract measurement) scanMAX Kinase assay panel
Particulars: LYN; 1 uM. The essentials:
as §1

The target of test [4] is T4, kinases of the scanMAX Kinase assay panel (Homo sapiens, UniProt Q96PN8).
T4 construct: purchased DiscoverX Co. (contract measurement) scanMAX Kinase assay panel
T4 sequence (Q96PN8 1-268): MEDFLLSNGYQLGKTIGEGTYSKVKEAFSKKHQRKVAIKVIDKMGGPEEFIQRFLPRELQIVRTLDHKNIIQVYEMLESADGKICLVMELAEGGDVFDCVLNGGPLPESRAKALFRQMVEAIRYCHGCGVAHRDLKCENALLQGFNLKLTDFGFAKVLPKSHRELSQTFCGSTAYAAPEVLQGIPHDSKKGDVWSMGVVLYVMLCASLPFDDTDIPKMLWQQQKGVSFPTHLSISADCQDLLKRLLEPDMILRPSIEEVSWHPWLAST
The conditions noted are these: kinase TSSK3; 1 uM in DMSO. A digest of the protocol:
as §1

Test [5] deals with T5, kinases of the scanMAX Kinase assay panel (Homo sapiens, UniProt Q13188).
T5 construct: purchased DiscoverX Co. (contract measurement) scanMAX Kinase assay panel
T5 sequence (Q13188 1-491): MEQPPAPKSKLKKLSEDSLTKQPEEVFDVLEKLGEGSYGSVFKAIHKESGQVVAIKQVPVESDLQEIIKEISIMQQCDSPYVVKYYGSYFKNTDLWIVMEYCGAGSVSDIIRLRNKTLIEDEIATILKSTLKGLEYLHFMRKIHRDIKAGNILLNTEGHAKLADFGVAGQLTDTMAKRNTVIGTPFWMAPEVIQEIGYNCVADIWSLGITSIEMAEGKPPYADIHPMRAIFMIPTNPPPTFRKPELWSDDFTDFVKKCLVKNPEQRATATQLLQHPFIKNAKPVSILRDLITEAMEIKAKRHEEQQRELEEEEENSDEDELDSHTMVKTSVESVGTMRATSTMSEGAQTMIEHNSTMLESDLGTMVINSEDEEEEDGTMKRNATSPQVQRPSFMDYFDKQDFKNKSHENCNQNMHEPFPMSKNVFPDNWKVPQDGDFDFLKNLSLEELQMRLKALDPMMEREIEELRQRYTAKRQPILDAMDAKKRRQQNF
Particulars: MST2; 1 uM. A digest of the protocol: as §1

T3 sequence (P07948 whole entry): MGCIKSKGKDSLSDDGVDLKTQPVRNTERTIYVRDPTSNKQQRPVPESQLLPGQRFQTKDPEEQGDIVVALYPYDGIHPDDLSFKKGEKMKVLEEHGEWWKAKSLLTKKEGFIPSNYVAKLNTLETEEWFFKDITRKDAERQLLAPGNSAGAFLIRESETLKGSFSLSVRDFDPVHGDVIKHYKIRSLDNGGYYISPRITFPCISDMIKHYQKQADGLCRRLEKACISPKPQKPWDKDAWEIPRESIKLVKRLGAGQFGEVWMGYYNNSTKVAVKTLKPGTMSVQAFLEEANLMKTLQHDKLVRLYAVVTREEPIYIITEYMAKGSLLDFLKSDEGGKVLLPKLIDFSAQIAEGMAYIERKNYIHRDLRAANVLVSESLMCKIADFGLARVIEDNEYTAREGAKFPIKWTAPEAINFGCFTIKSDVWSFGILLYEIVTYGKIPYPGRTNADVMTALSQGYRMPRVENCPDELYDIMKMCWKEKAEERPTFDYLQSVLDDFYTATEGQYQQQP

For `CNc1nc(Nc2ccc(C(=O)N3CCOCC3)cc2OC)nc2[nH]cc(C#N)c12` [Example 1, 2-((2-methoxy-4-(morpholine-4-carbonyl)phenyl)amino)-4-(methylamino)-7H-pyrrolo[2,3-d]pyrimidine-5-carbonitrile], the remaining binding at 1 µM was 100% in test [1]; 91% in test [2]; 90% in test [3]; 74% in test [4]; 92% in test [5].

As to `CC1(Nc2nc(Nc3cnn([C@H]4CCN(C5COC5)C[C@@H]4F)c3Cl)nc3[nH]cc(C#N)c23)CC1` [Example 52, 2-((5-chloro-1-((3S,4S)-3-fluoro-1-(oxetane-3-yl)piperidine-4-yl)-1H-pyrazole-4-yl)amino)((1-methylcyclopropyl)amino)-7H-pyrrolo[2,3-d]pyrimidine-5-carbonitrile], the remaining binding at 1 µM in test [1] came out at 3.4%; in test [2], 31%; in test [3], 36%; in test [4], 72%; in test [5] it was 15%.

On to `CCNc1nc(Nc2ccc(C(=O)N3CCC(N4CCOCC4)CC3)cc2OC)nc2[nH]cc(C(F)(F)F)c12` [Example 104, (4-((4-(ethylamino)-5-(trifluoromethyl)-7H-pyrrolo[2,3-d]pyrimidine-2-yl)amino)-3-methoxyphenyl)(4-morpholinopiperidine-1-yl)methanone], for which the remaining binding at 1 µM is 100% in test [1]; 87% in test [2]; 100% in test [3]; 100% in test [4]; 71% in test [5].
